Legend:
barnyardgrass [1] = assay: Test A pre-/postemergence herbicide test; format: in vivo, Echinochloa crus-galli; conditions: for Plant response rating, Barnyardgrass: 0 to 100 scale
How it was run: (§1)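 Formulated compound (non-phytotoxic solvent, surfactant) sprayed pre- onto soil of seeded loam/sand pots or post- onto seedlings at 1–2 leaves; ~10 d greenhouse; 0–100 visual control rating versus untreated.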

kochia = assay: Test A pre-/postemergence herbicide test; format: in vivo, Kochia scoparia; conditions: for Plant response rating, Kochia: 0 to 100 scale
How it was run: as §1

ragweed = assay: Test A pre-/postemergence herbicide test; format: in vivo, Ambrosia elatior; conditions: for Plant response rating, Ragweed: 0 to 100 scale
How it was run: as §1

ryegrass, Italian = assay: Test A pre-/postemergence herbicide test; format: in vivo, Lolium multiflorum; conditions: for Plant response rating, Ryegrass, Italian: 0 to 100 scale
How it was run: as §1

giant foxtail = assay: Test A pre-/postemergence herbicide test; format: in vivo, Setaria faberii; conditions: for Plant response rating, Foxtail, Giant: 0 to 100 scale
How it was run: as §1

pigweed = assay: Test A pre-/postemergence herbicide test; format: in vivo, Amaranthus retroflexus; conditions: for Plant response rating, Pigweed: 0 to 100 scale
How it was run: as §1

wheat = assay: Test A pre-/postemergence herbicide test; format: in vivo, Triticum aestivum; conditions: Postemergence; for Plant response rating, Wheat: 125 g ai/ha, 0 to 100 scale, 0 is no effect, 100 is complete control; for Wheat plant response rating (0 to 100 scale, 0 is no effect, 100 is complete control): 500 g ai/ha
How it was run: as §1

corn = assay: Test A pre-/postemergence herbicide test; format: in vivo, Zea mays; conditions: Postemergence; for Plant response rating, Corn: 125 g ai/ha, 0 to 100 scale, 0 is no effect, 100 is complete control; for Corn plant response rating (0 to 100 scale, 0 is no effect, 100 is complete control): 500 g ai/ha
How it was run: as §1

blackgrass = assay: Test A postemergence herbicide test; format: in vivo, Alopecurus myosuroides; conditions: for Plant response rating, Blackgrass: 125 g ai/ha, 0 to 100 scale, 0 is no effect, 100 is complete control; for Blackgrass plant response rating (0 to 100 scale, 0 is no effect, 100 is complete control): 500 g ai/ha
How it was run: (§2)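 Blackgrass and galium grown in pots of loam soil–sand blend, treated postemergence at 2–10 cm height, one- to two-leaf stage. Plants kept in greenhouse ~10 days, then visually rated for injury against untreated controls on a 0–100 scale (0 no effect, 100 complete control).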

galium = assay: Test A postemergence herbicide test; format: in vivo, Galium aparine; conditions: for Plant response rating, Galium: 125 g ai/ha, 0 to 100 scale, 0 is no effect, 100 is complete control; for Galium plant response rating (0 to 100 scale, 0 is no effect, 100 is complete control): 500 g ai/ha
How it was run: as §2

rice = assay: Test B flooded paddy test; format: in vivo, Oryza sativa; conditions: Flood, scale of 0 to 100 where 0 is no effect and 100 is complete control
How it was run: (§3)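 Treatment was made at the 2-leaf stage by dosing the standing floodwater, kept 3 cm above soil level for the whole test. Greenhouse exposure lasted 13 to 15 days. Response is a visual percent rating relative to controls, where a dash indicates no test result.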

sedge, umbrella = assay: Test B flooded paddy test; format: in vivo, Cyperus difformis; conditions: Flood, scale of 0 to 100 where 0 is no effect and 100 is complete control
How it was run: as §3

ducksalad = assay: Test B flooded paddy test; format: in vivo, Heteranthera limosa; conditions: Flood, scale of 0 to 100 where 0 is no effect and 100 is complete control
How it was run: as §3

barnyardgrass [2] = assay: Test B flooded paddy test; format: in vivo, Echinochloa crus-galli; conditions: Flood, scale of 0 to 100 where 0 is no effect and 100 is complete control
How it was run: as §3

[3] = 125 g ai/ha, visual rating, 0 no effect, 100 complete control, approximately 10 days, preemergence
[4] = Postemergence, 125 g ai/ha, 0 is no effect, 100 is complete control
[5] = preemergence, 500 g ai/ha, 0 is no effect and 100 is complete control

SMILES	Plant response rating, Barnyardgrass (barnyardgrass [1]; [3])	Plant response rating, Barnyardgrass (barnyardgrass [1]; [4])	Barnyardgrass plant response rating (0 to 100 scale, 0 is no effect, 100 is complete control) (barnyardgrass [1]; Postemergence, 500 g ai/ha)	Plant response rating, Barnyardgrass (barnyardgrass [1]; [5])	Plant response rating, Kochia (kochia; [3])	Plant response rating, Kochia (kochia; [4])	Kochia plant response rating (0 to 100 scale, 0 is no effect, 100 is complete control) (kochia; Postemergence, 500 g ai/ha)	Plant response rating, Kochia (kochia; [5])	Plant response rating, Ragweed (ragweed; [3])	Plant response rating, Ragweed (ragweed; [4])	Ragweed plant response rating (0 to 100 scale, 0 is no effect, 100 is complete control) (ragweed; Postemergence, 500 g ai/ha)	Plant response rating, Ragweed (ragweed; [5])	Plant response rating, Ryegrass, Italian (ryegrass, Italian; [3])	Plant response rating, Ryegrass, Italian (ryegrass, Italian; [4])	Ryegrass, Italian plant response rating (0 to 100 scale, 0 is no effect, 100 is complete control) (ryegrass, Italian; Postemergence, 500 g ai/ha)	Plant response rating, Ryegrass, Italian (ryegrass, Italian; [5])	Plant response rating, Foxtail, Giant (giant foxtail; [3])	Plant response rating, Foxtail, Giant (giant foxtail; [4])	Foxtail, Giant plant response rating (0 to 100 scale, 0 is no effect, 100 is complete control) (giant foxtail; Postemergence, 500 g ai/ha)	Plant response rating, Foxtail, Giant (giant foxtail; [5])	also measured
CCCN1CC(c2ccc(C(F)(F)F)cc2)C(C(=O)Nc2cccc(F)c2F)C1=O (stereo not drawn) [Compound 182]	0	0	0	0	0	0	0	0	0	0	0	0	0	0	0	0	50	0	10	70	Plant response rating, Pigweed (pigweed; [3]): 0; Plant response rating, Pigweed (pigweed; [4]): 0; Pigweed plant response rating (0 to 100 scale, 0 is no effect, 100 is complete control) (pigweed; Postemergence, 500 g ai/ha): 0; Plant response rating, Pigweed (pigweed; [5]): 0; Plant response rating, Wheat (wheat): 0; Wheat plant response rating (0 to 100 scale, 0 is no effect, 100 is complete control) (wheat): 0; Plant response rating, Corn (corn): 0; Corn plant response rating (0 to 100 scale, 0 is no effect, 100 is complete control) (corn): 0; Plant response rating, Blackgrass (blackgrass): 0; Blackgrass plant response rating (0 to 100 scale, 0 is no effect, 100 is complete control) (blackgrass): 0; Plant response rating, Galium (galium): 0; Galium plant response rating (0 to 100 scale, 0 is no effect, 100 is complete control) (galium): 0; Plant response rating, Rice (rice; 500 g ai/ha): 0; Plant response rating, Sedge, Umbrella (sedge, umbrella; 500 g ai/ha): 0; Plant response rating, Ducksalad (ducksalad; 500 g ai/ha): 30; Plant response rating, Barnyardgrass (barnyardgrass [2]; 500 g ai/ha): 0
O=C1NCC(c2cccc(S(F)(F)(F)(F)F)c2)C1C(=O)Nc1cccc(F)c1F (stereo not drawn) [Compound 214]	70	60	70	80	0	0	40	80	0	0	0	0	0	10	30	0	80	80	90	90	Plant response rating, Pigweed (pigweed; [3]): 0; Plant response rating, Pigweed (pigweed; [4]): 0; Pigweed plant response rating (0 to 100 scale, 0 is no effect, 100 is complete control) (pigweed; Postemergence, 500 g ai/ha): 50; Plant response rating, Pigweed (pigweed; [5]): 70; Plant response rating, Wheat (wheat): 0; Wheat plant response rating (0 to 100 scale, 0 is no effect, 100 is complete control) (wheat): 50; Plant response rating, Corn (corn): 30; Corn plant response rating (0 to 100 scale, 0 is no effect, 100 is complete control) (corn): 50; Plant response rating, Blackgrass (blackgrass): 40; Blackgrass plant response rating (0 to 100 scale, 0 is no effect, 100 is complete control) (blackgrass): 70; Plant response rating, Galium (galium): 40; Galium plant response rating (0 to 100 scale, 0 is no effect, 100 is complete control) (galium): 70; Plant response rating, Rice (rice; 1000 g ai/ha): 20; Plant response rating, Sedge, Umbrella (sedge, umbrella; 1000 g ai/ha): 0; Plant response rating, Ducksalad (ducksalad; 1000 g ai/ha): 90; Plant response rating, Barnyardgrass (barnyardgrass [2]; 1000 g ai/ha): 75
O=C1NCC(c2cccc(S(F)(F)(F)(F)F)c2)C1C(=O)Nc1ccccc1C(F)(F)F (stereo not drawn) [Compound 215]	60	50	60	80	0	0	0	0	0	0	10	0	0	0	0	10	80	80	80	90	Plant response rating, Pigweed (pigweed; [3]): 0; Plant response rating, Pigweed (pigweed; [4]): 50; Pigweed plant response rating (0 to 100 scale, 0 is no effect, 100 is complete control) (pigweed; Postemergence, 500 g ai/ha): 60; Plant response rating, Pigweed (pigweed; [5]): 50; Plant response rating, Wheat (wheat): 0; Wheat plant response rating (0 to 100 scale, 0 is no effect, 100 is complete control) (wheat): 0; Plant response rating, Corn (corn): 0; Corn plant response rating (0 to 100 scale, 0 is no effect, 100 is complete control) (corn): 0; Plant response rating, Blackgrass (blackgrass): 30; Blackgrass plant response rating (0 to 100 scale, 0 is no effect, 100 is complete control) (blackgrass): 50; Plant response rating, Galium (galium): 40; Galium plant response rating (0 to 100 scale, 0 is no effect, 100 is complete control) (galium): 60; Plant response rating, Rice (rice; 1000 g ai/ha): 0; Plant response rating, Sedge, Umbrella (sedge, umbrella; 1000 g ai/ha): 0; Plant response rating, Ducksalad (ducksalad; 1000 g ai/ha): 80; Plant response rating, Barnyardgrass (barnyardgrass [2]; 1000 g ai/ha): 60
O=C1NCC(c2cccc3ccccc23)C1C(=O)Nc1ccccc1F (stereo not drawn) [Compound 216]	20	0	0	60	0	0	0	0	0	0	0	0	0	0	0	0	40	0	10	50	Plant response rating, Pigweed (pigweed; [3]): 0; Plant response rating, Pigweed (pigweed; [4]): 0; Pigweed plant response rating (0 to 100 scale, 0 is no effect, 100 is complete control) (pigweed; Postemergence, 500 g ai/ha): 0; Plant response rating, Pigweed (pigweed; [5]): 0; Plant response rating, Wheat (wheat): 0; Wheat plant response rating (0 to 100 scale, 0 is no effect, 100 is complete control) (wheat): 0; Plant response rating, Corn (corn): 0; Corn plant response rating (0 to 100 scale, 0 is no effect, 100 is complete control) (corn): 0; Plant response rating, Blackgrass (blackgrass): 0; Blackgrass plant response rating (0 to 100 scale, 0 is no effect, 100 is complete control) (blackgrass): 0; Plant response rating, Galium (galium): 0; Galium plant response rating (0 to 100 scale, 0 is no effect, 100 is complete control) (galium): 0; Plant response rating, Rice (rice; 500 g ai/ha): 0; Plant response rating, Sedge, Umbrella (sedge, umbrella; 500 g ai/ha): 0; Plant response rating, Ducksalad (ducksalad; 500 g ai/ha): 0; Plant response rating, Barnyardgrass (barnyardgrass [2]; 500 g ai/ha): 0

Reference: patent publication US10294202B2, “Pyrrolidinones as herbicides” (FMC Corporation, priority 2013, dated 2019)
